According to patent publication US20250102493A1, “COMPOSITIONS AND METHODS FOR TREATMENT OF ANEUPLOID CANCERS” (Yale University, priority 2023, published 2025):

Key:
HAP1 UCK2-knockout cells = experiment: 72-hour drug assay in UCK2-knockout HAP1 cells; format: cell-based; conditions: haploid HAP1 cell line, UCK2 deleted with CRISPR
Excerpt: (§1) Following this, the cells were harvested and counted.
HAP1 cells harboring a CRISPR-induced frameshift mutation in the UCK2 gene were purchased from Horizon Discovery (cat. no. HZGHC007067c006). Loss of UCK2 expression was verified by western blotting.
First, as the mechanism of many cancer drugs is poorly understood (Lin, et al., Sci. Transl. Med. 11 (2019), Lin & Sheltzer, Nat. Rev. Genet. 21, 671-682 (2020)),whether the cytotoxicity of RX-3117 and 3-deazauridine requires UCK2 expression was assessed.

A2780 cells = experiment: 72-hour drug assay in A2780 1q-trisomic and 1q-disomic cells; format: cell-based, human; conditions: for sensitivity of cells harboring a trisomy of chromosome 1q compared to isogenic cells containing two copies of chromosome 1q: A2780, FIG. 6D; for sensitivity of 1q disomic cells compared to 1q trisomic cells: A2780 WT (1q trisomic) and engineered 1q disomic clones C1-C4
Excerpt: as §1

NCI-60 cell line panel = conditions: NCI-60 panel (Luna et al.); cited from earlier work
MCF10A cells [1] = experiment: 72-hour drug assay in MCF10A 1q-trisomic and 1q-disomic cells; format: cell-based, human; conditions: FIG. 6D
Excerpt: as §1

MCF10A cells [2] = experiment: Cellular competition between 1q-trisomic and 1q-disomic MCF10A cells; format: cell-based, human
Procedure: For the competition experiment, two independent experiments were performed: one when cells were mixed at an 80-20 ratio and one when cells were mixed at a 90:10 ratio. Similar results were obtained in both experiments.
Whether the greater sensitivity of 1q-trisomic cells to UCK2 substrates could be used to re-direct cellular evolution away from aneuploidy and towards a disomic state with lower malignant potential was assessed (FIG. 6E). Fluorescently-labeled 1q-trisomic and 1q-disomic MCF10A cells were mixed at a ratio of 20:80 and then co-cultured the two cell populations. After nine days of growth in drug-free medium, the trisomic cells had expanded to include 75% of the culture, but when the same cell populations were grown in the presence of 500 nM 3-deazauridine, the trisomic population decreased to include only 4% of the final culture (FIG. 6F).

DLD1 colon cancer cells = experiment: Drug sensitivity of DLD1 trisomy-1 cells and parental DLD1 cells; format: cell-based; conditions: P<0.005; t-test
Procedure: The DLD1 trisomy 1 clone was generated as previously described in ref (Vasudevan, et al., Dev. Cell. 52, 413-428.e6 (2020)). In brief, DLD1 cells were transiently treated with 1 μM AZ3146 (Selleck Chemicals; cat. no. S2731) for 24 hours, and then the drug was washed out and the cells were allowed to recover for 24 hours. Following the recovery passage, single-cell sorting was performed to isolate individual aneuploid clones. SMASH-Seq was used to identify a clone harboring a trisomy of chromosome 1.
as §1

AGS cells = experiment: 72-hour drug assay in AGS 1q-trisomic and 1q-disomic cells; format: cell-based, human
Excerpt: as §1

A2058 cells = experiment: 72-hour drug assay in A2058 1q-trisomic and 1q-disomic cells; format: cell-based, human
Excerpt: as §1

SMILES | response of UCK2-knockout cells to the compound (HAP1 UCK2-knockout cells) | sensitivity of cells harboring a trisomy of chromosome 1q compared to isogenic cells containing two copies of chromosome 1q (A2780 cells) | sensitivity of 1q disomic cells compared to 1q trisomic cells (A2780 cells) | correlation of UCK2 expression with sensitivity to the compound (NCI-60 cell line panel) | sensitivity of cells harboring a trisomy of chromosome 1q compared to isogenic cells containing two copies of chromosome 1q (MCF10A cells [1]) | trisomic population in the final culture (MCF10A cells [2]; 500 nM 3-deazauridine, nine days, 1q-trisomic and 1q-disomic MCF10A mixed at 20:80, 75% in drug-free medium) [%] | effect on outgrowth of the 1q-trisomic subpopulation (MCF10A cells [2]; trisomic and disomic MCF10A mixed at 20% to 80%, FIG. 6F) | effect of ectopic overexpression of UCK2 cDNA on sensitivity to the compound (A2780 cells; 1q-disomic A2780 cells) | effect of deleting a single copy of UCK2 on sensitivity to the compound (A2780 cells; 1q-trisomic A2780 cells) | sensitivity of DLD1 trisomy-1 cells compared to the parental DLD1 cells (DLD1 colon cancer cells) | difference in sensitivity between 1q-trisomic and 1q-disomic cells (AGS cells) | difference in sensitivity between 1q-trisomic and 1q-disomic cells (A2058 cells)
O=C1C=CN([C@@H]2O[C@H](CO)[C@@H](O)[C@H]2O)C(=O)C1 [3-deazauridine] | highly resistant | more sensitive | less sensitive | higher UCK2 expression correlates with greater sensitivity | more sensitive | 4 | prevents the outgrowth of the 1q-trisomic subpopulation |  |  |  |  | 
Nc1ccn([C@@H]2C(F)=C(CO)[C@@H](O)[C@H]2O)c(=O)n1 [RX-3117] | highly resistant | more sensitive | less sensitive | higher UCK2 expression correlates with greater sensitivity | more sensitive |  |  | increase sensitivity | decrease sensitivity | significantly more sensitive | not evident | not evident
